From ChEMBL document CHEMBL1135342, “Synthesis and evaluation of thymidine-5'-O-monophosphate analogues as inhibitors of Mycobacterium tuberculosis thymidylate kinase” (Bioorg Med Chem Lett, 2002)

Target: T1, Thymidylate kinase (Mycobacterium tuberculosis, UniProt P9WKE1)
T1 sequence (P9WKE1 whole entry): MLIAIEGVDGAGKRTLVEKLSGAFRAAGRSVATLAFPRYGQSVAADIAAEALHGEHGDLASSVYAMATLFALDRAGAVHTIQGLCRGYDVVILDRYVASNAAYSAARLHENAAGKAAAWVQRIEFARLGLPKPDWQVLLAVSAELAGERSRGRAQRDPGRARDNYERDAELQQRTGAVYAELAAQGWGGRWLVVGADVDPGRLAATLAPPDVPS
Test: Compound was tested for binding affinity against Mycobacterium tuberculosis thymidine monophosphate kinase

Structure (SMILES)	Ki [µM]
Cc1cn([C@@H]2O[C@H](COP(=O)(O)O)[C@@H](O)[C@H]2N)c(=O)[nH]c1=O	55
Cc1cn([C@@H]2O[C@H](COP(=O)(O)O)[C@@H](N)[C@H]2O)c(=O)[nH]c1=O	27
Cc1cn([C@H]2C[C@H](N)[C@@H](COP(=O)(O)O)O2)c(=O)[nH]c1=O	235
Cc1cn([C@@H]2O[C@H](COP(=O)(O)O)[C@@H](O)[C@H]2F)c(=O)[nH]c1=O	43
Cc1cn([C@@H]2O[C@H](COP(=O)(O)O)[C@@H](O)[C@H]2Cl)c(=O)[nH]c1=O	19
Cc1cn([C@H]2C[C@H](N=[N+]=[N-])[C@@H](COP(=O)(O)O)O2)c(=O)[nH]c1=O [AZIDOTHYMIDINE MONOPHOSPHATE]	10
